Here are results for 19 compounds from ChEMBL document CHEMBL4024734, “Design, synthesis, biological evaluation and molecular docking studies of novel 3-aryl-4-anilino-2H-chromen-2-one derivatives targeting ERα as anti-breast cancer agents” (Bioorg Med Chem Lett, 2017).

A value given as a limit tells only on which side of the number the result lay.

The test system of experiment [1] is MCF7. Briefly: Antiproliferative activity against ER positive human MCF7 cells after 48 hrs by MTT assay. The following applies: MCF7, 48 h. The format is functional, cell-based.
Experiment [2] concerns Ishikawa. Briefly: Antiproliferative activity against human Ishikawa cells after 48 hrs by MTT assay. The format is functional, cell-based.
Experiment [3] deals with T1, Estrogen receptor (Homo sapiens) (UniProt P03372).
T1 sequence (whole entry): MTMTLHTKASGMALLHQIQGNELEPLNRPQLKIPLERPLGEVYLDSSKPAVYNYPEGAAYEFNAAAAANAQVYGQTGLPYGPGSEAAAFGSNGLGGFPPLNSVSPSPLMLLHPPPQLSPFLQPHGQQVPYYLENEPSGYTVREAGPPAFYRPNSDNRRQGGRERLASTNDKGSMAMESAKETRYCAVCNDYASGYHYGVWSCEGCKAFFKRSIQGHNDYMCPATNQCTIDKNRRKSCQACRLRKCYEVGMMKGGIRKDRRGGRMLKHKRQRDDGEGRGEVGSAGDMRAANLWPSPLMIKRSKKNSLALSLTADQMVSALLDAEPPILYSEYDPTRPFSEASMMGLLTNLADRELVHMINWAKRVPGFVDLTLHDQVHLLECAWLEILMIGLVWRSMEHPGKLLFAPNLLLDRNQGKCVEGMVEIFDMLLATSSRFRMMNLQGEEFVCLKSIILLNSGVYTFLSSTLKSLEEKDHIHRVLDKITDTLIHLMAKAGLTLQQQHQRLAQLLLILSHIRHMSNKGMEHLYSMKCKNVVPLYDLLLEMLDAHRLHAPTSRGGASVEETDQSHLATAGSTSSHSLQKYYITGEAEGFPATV
Briefly: Displacement of fluoromone from full length recombinant human estrogen receptor alpha expressed in Spodoptera frugiperda at 100 uM measured after 2 hrs by fluorescence polarization assay relative to control. A general note: Fluorescence polarisation rises when a labelled molecule tumbles more slowly, as on binding a larger partner.

Experiment [4] relates to MCF7. Kind of experiment: Potency index, ratio of tamoxifen IC50 to compound IC50 against human MCF7 cells. The format is functional.

By IC50 is commonly meant the concentration that gives 50% inhibition. Read a high IC50 as a need for much substance. On to `COc1ccc(-c2c(Nc3ccc(OCCN4CCN(C)CC4)cc3)c3ccc(OC)cc3oc2=O)cc1`, for which the half-maximal inhibitory concentration (IC50) in experiment [1] turned out to be 12.4 µM; in experiment [2], 15.2 µM.
For `COc1ccc(-c2c(Nc3ccc(OCCN(C)C)cc3)c3ccc(OC)cc3oc2=O)cc1`, in that order: 8.32 µM and 12.2 µM.
As for `COc1ccc(-c2c(Nc3ccc(OCCN4CCOCC4)cc3)c3ccc(OC)cc3oc2=O)cc1`, the IC50 in experiment [1] and in experiment [2] was over 100 µM throughout. Moreover, the RBA in experiment [3] worked out at 24%.
For the compound `CCN(CC)CCOc1ccc(Nc2c(-c3ccc(OC)cc3)c(=O)oc3ccccc23)cc1`, the IC50 in experiment [1] is 7.57 µM; in experiment [2], 10.8 µM.
On the same counts, the results for `COc1ccc(-c2c(Nc3ccc(OCCN4CCCC4)cc3)c3ccc(OC)cc3oc2=O)cc1` are 6.51 µM and 9.39 µM.
With `COc1ccc(-c2c(Nc3ccc(OCCN4CCCCC4)cc3)c3ccccc3oc2=O)cc1`, the values for the IC50 in experiment [1] and in experiment [2] were 5.86 µM and 8.74 µM, respectively.
For the compound `CC/C(=C(\c1ccccc1)c1ccc(OCCN(C)C)cc1)c1ccccc1` [TAMOXIFEN], half-maximal inhibition in experiment [1] (IC50) was put at 11.3 µM.
For `CCN(CC)CCOc1ccc(Nc2c(-c3ccc(OC)cc3)c(=O)oc3cc(O)ccc23)cc1`, the figures for the IC50 in experiment [1] and in experiment [2] were 8.81 µM and 14.8 µM, respectively.
`COc1ccc(-c2c(Nc3ccc(OCCN4CCOCC4)cc3)c3ccccc3oc2=O)cc1`: the IC50 in experiment [1] is 47.5 µM; in experiment [2], 49.5 µM. Also, the RBA in experiment [3] came out at 17%.
In the case of `COc1ccc(-c2c(Nc3ccc(OCCN4CCCCC4)cc3)c3ccc(OC)cc3oc2=O)cc1`, the IC50 was 4.52 µM in experiment [1] and 11.6 µM in experiment [2]. The “Ratio IC50” value in experiment [4] was determined as 3.
Turning to `COc1ccc(-c2c(Nc3ccc(OCCN4CCOCC4)cc3)c3ccc(O)cc3oc2=O)cc1`, the IC50 in experiment [1] and in experiment [2] was over 100 µM in each case.
Regarding `CCN(CC)CCOc1ccc(Nc2c(-c3ccc(OC)cc3)c(=O)oc3cc(OC)ccc23)cc1`, the figures for the half-inhibitory concentration (IC50) in experiment [1] and in experiment [2] were 10.2 µM and 8.84 µM, respectively.
On the same counts, the results for `COc1ccc(-c2c(Nc3ccc(OCCN4CCCCC4)cc3)c3ccc(O)cc3oc2=O)cc1` are 7.31 µM and 8.43 µM.
In the case of `COc1ccc(-c2c(Nc3ccc(OCCN4CCCC4)cc3)c3ccc(O)cc3oc2=O)cc1`, the IC50 came to 8.42 µM in experiment [1] and 11.8 µM in experiment [2].
Consider `COc1ccc(-c2c(Nc3ccc(OCCN4CCCC4)cc3)c3ccccc3oc2=O)cc1`, for which the IC50 turned out to be 6.21 µM in experiment [1] and 9.3 µM in experiment [2].
On to `COc1ccc(-c2c(Nc3ccc(OCCN(C)C)cc3)c3ccccc3oc2=O)cc1`, for which the IC50 in experiment [1] amounted to 8.76 µM; in experiment [2] it was 11.8 µM.
As to `COc1ccc(-c2c(Nc3ccc(OCCN(C)C)cc3)c3ccc(O)cc3oc2=O)cc1`, the IC50 in experiment [1] worked out at 9.53 µM; in experiment [2] it was 13.2 µM.
On the same counts, the results for `COc1ccc(-c2c(Nc3ccc(OCCN4CCN(C)CC4)cc3)c3ccc(O)cc3oc2=O)cc1` are 17.6 µM and 19.4 µM.
On the same counts, the results for `COc1ccc(-c2c(Nc3ccc(OCCN4CCN(C)CC4)cc3)c3ccccc3oc2=O)cc1` are 15.6 µM and 23.4 µM.
